Entries after “also recorded” stand apart in the source; their conditions may differ.
Assays:
Assay type in all cases: cell-based
CREB genomic binding = experiment: CREB ChIP-Seq in KG-1 cells; details: 5 μM, 6 hours
Method: For Chip-Seq experiments, KG-1 cells were treated with 5 μM Compound A or DMSO for 6 hours. Cells were cross-linked with 1% formaldehyde at room temperature for 10 min and then incubated with […] for 5 min. After cross-linking, chromatin was digested by Micrococcal nuclease and then sonicated using SimpleChIP® Plus Enzymatic Chromatin IP Kit (Cell Signaling, Danvers, Mass.) following the manufacturer's protocol. Chromatin immunoprecipitations were carried out with anti-CREB antibody (Millipore, Billerica, Mass.) or a control IgG (Santa Cruz Biotechnology). The captured immunocomplexes containing bound transcriptional DNA fragments were eluted, with recovered DNA fragments used for PCR amplification. For RNA-Seq experiments, KG-1 cells were treated with Compound A (5 μM) or 0.1% DMSO for 12 hours. RNA was prepared using the Aurum Total RNA Mini Kit (Bio-Rad). Sample libraries were run using the Illumina sequencing platform. Two hundred million reads were collected on two biological replicates of the experiment. […]
(§1) To determine the functional specificity and downstream effects of Compound A in AML, the CREB transcriptome was first defined in KG-1 cells using CREB chromatin immunoprecipitation followed by high-throughput sequencing (CREB ChIP-Se). […] In this way, the ‘on-target’ effects of Compound A could be assessed.

KG-1 cells = experiment: Chemotherapy combination, isobolograms in KG-1 cells; details: 48 hours
Method: AML cell lines were purchased from ATCC and maintained with IMDM (Gibco) supplemented with 10% FBS (Fisher Scientific) and 1% PSG (Gibco). Cells were plated at a density of 2-4×10^5 cells/ml, and treated with various doses of Compound A in 0.1% DMSO or 0.1% DMSO alone. Cell counts and viability were determined using the Vi-CELL XR Cell Viability Analyzer (Beckman Coulter). HL-60 and KG-1 cells overexpressing CREB or CBP were generated using lentiviral gene delivery with subsequent puromycin selection and FACs sorting for GFP. CREB knockdown was achieved by infecting cells with a lentivirus expressing the shRNA sequence 5′-[…]-3′ (SEQ ID NO:). For chemotherapy combination experiments, combination index values were calculated using median effects analysis on Calcusyn software. Human patient bone marrow samples were cultured in DMEM plus 20% FBS and 1×PSG, supplemented with recombinant GM-CSF (20 ng/ml), G-CSF (20 ng/ml), SCF (50 ng/ml), IL-3 (20 ng/ml), and IL-6 (10 ng/ml). Cells were plated at a concentration of 1×10^5 cells/ml in a 12-well plate. Vehicle (0.1% DMSO) or Compound A (2 μM) was added for up to 72 hours. All samples contained >85% AML blasts and were not sorted prior to performing experiments. Immunostaining and flow cytometry analyses were performed according to standard procedures. All antibodies were purchased from BD Biosciences. Single cell suspensions of bone marrow culture were subsequently analyzed on a D×P10 flow cytometer (Cytek). Bone marrow from AML patients were collected through voluntary patient participation at University of California, Los Angeles (Los Angeles, Calif., USA) and Stanford University (Palo Alto, Calif., USA) in compliance with the Institutional Review Board regulations of each institution.
To test the effects of CREB inhibition on AML cells, four AML cell lines were treated with doses of Compound A ranging from 100 pM to 10 μM for 48 hours. […] KG-1 cells were less sensitive to Compound A and expressed lower levels of CREB compared to HL-60 cells (FIG. 2, panel A). […]

CREB/CBP association = target: T1, CREB/CBP association (Homo sapiens, UniProt Q92793); experiment: Anti-CBP immunoprecipitation of CREB-transfected HEK293 cells; details: HEK293 lysates or cells, 5 μM, 1 hour
T1 construct: endogenous in cells; host or cells: HEK293 cells (CBP endogenous; CREB from a transfected plasmid)
T1 sequence (Q92793 whole entry): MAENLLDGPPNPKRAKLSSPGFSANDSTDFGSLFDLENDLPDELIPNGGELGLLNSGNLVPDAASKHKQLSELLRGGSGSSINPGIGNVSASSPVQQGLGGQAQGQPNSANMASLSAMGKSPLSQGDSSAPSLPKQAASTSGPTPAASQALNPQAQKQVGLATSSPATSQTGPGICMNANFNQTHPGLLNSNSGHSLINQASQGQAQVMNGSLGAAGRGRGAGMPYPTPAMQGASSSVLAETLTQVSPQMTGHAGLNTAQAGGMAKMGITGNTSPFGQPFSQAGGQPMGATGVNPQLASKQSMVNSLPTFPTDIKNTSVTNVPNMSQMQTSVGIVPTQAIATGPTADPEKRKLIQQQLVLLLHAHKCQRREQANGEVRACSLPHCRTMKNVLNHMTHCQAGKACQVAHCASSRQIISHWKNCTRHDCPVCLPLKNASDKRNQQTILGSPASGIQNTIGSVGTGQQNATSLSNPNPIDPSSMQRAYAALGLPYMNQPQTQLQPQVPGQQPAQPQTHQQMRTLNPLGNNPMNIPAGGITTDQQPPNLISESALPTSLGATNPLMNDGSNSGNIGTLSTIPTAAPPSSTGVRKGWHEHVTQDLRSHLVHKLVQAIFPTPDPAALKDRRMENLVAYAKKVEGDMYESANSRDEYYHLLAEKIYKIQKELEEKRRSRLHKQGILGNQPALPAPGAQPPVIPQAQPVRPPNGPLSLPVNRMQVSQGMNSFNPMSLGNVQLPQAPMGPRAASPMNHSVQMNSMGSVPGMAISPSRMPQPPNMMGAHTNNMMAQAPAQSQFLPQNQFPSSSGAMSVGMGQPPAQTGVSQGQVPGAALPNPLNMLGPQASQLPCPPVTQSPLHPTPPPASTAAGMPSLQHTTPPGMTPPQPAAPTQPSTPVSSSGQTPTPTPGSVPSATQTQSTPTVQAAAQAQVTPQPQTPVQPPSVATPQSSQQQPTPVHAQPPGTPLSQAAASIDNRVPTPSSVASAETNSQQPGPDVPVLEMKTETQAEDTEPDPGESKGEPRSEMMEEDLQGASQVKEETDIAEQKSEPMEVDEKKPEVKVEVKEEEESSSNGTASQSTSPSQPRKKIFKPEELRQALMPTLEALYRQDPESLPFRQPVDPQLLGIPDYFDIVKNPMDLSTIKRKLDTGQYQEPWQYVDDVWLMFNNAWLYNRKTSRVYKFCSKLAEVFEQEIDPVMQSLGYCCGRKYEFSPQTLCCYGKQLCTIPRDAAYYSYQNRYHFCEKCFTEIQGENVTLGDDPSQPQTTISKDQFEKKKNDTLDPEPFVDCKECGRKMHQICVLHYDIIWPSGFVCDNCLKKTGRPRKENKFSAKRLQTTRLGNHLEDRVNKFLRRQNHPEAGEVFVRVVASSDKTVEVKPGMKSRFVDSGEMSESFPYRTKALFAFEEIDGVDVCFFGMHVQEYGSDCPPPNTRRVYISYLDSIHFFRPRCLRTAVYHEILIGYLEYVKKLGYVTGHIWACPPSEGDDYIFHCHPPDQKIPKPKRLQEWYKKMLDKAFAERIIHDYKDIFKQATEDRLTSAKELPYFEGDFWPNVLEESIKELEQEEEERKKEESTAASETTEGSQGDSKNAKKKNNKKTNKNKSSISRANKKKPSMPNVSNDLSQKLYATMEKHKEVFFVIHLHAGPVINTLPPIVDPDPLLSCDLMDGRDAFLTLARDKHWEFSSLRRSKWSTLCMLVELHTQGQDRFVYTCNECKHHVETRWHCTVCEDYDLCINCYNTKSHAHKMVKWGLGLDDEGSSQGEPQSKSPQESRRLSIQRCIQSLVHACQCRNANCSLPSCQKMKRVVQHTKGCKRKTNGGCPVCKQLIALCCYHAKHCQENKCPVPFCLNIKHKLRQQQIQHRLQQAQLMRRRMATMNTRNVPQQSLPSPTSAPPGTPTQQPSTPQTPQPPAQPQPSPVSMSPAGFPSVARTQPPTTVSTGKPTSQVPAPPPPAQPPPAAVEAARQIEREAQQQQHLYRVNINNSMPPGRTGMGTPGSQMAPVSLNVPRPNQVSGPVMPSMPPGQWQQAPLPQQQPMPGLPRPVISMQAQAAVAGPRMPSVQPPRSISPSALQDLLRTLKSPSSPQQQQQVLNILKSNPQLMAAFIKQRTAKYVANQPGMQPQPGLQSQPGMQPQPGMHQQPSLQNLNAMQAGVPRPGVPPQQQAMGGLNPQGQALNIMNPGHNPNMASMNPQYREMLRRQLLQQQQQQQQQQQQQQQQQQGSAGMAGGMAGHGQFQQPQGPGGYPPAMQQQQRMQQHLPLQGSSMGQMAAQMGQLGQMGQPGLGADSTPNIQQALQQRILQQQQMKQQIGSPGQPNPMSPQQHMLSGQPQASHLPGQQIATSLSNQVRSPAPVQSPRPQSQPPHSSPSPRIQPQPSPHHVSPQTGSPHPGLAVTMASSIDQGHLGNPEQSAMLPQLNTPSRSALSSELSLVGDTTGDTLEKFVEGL
Method: Mutation of Arginine-600 to Alanine reduced binding of Compound A by ˜45% at a concentration of 5 μM, while a KIX mutant lacking amino acids 586-602 reduced binding by ˜70%. Panel C) Binding model of Compound A to CBP KIX domain. […] Panel E). Two KG-1 cell lines were generated in which luciferase was expressed either under the control of a CREB-driven promoter (CRE) or a CMV-driven promoter (CMV). These two cell lines were each treated with a range of Compound A or Analog B concentrations for 6 hours. […] HEK293 cells were transfected with a plasmid expressing CREB. Cells were treated with Compound A (A, 5 μM, lane 3) or DMSO vehicle (D) for 1 hour. Total lysates of transfected HEK293 cells were immunoprecipitated using anti-CBP antibody. Compound A (A, 5 μM) was added during anti-CBP Immunoprecipation process (lane 1). Immunoprecipitates (CBP-IP) and total lysates were analyzed by immunoblotting for phospho-CREB (p-CREB) and CBP.
To test the ability of Compound A to disrupt CREB-CBP binding in cells, a split Renilla luciferase complementation assay was performed. […] This early timepoint was selected to permit accurate reporter gene activity measurement prior to the onset of anticipated global cell dysfunction or death induced by Compound A. Treatment with 3 μM Compound A reduced luciferase activity by 33.2±7.7% at this timepoint. […]

[1] = tested on: CREB-bound genes in KG-1 cells; experiment: RNA-Seq of KG-1 cells
Method: For Chip-Seq experiments, KG-1 cells were treated with 5 μM Compound A or DMSO for 6 hours. Cells were cross-linked with 1% formaldehyde at room temperature for 10 min and then incubated with […] for 5 min. After cross-linking, chromatin was digested by Micrococcal nuclease and then sonicated using SimpleChIP® Plus Enzymatic Chromatin IP Kit (Cell Signaling, Danvers, Mass.) following the manufacturer's protocol. Chromatin immunoprecipitations were carried out with anti-CREB antibody (Millipore, Billerica, Mass.) or a control IgG (Santa Cruz Biotechnology). The captured immunocomplexes containing bound transcriptional DNA fragments were eluted, with recovered DNA fragments used for PCR amplification. For RNA-Seq experiments, KG-1 cells were treated with Compound A (5 μM) or 0.1% DMSO for 12 hours. RNA was prepared using the Aurum Total RNA Mini Kit (Bio-Rad). Sample libraries were run using the Illumina sequencing platform. Two hundred million reads were collected on two biological replicates of the experiment. Libraries were prepared using the Illumina Truseq RNA samples prep kit per manufacturer's instructions. Fastq files were aligned using TopHat. Aligned BAM files were used for CuffDiff calculation of differentially expressed genes. CummeRbund R package was used to infer QC of the RNA-seq (GEO Submission GSE74928) [NCBI tracking system #17594369]. ChIP-seq analysis was performed. BETA analysis was used by inferring differentially expressed genes between DMSO and Compound A treated cells based on a fdr≤0.01 and gene distance of 100 kb (Galaxy/cistrome). DNA sequences enriched on ChIP-Seq were defined.
as §1

N#Cc1ccc(NC(=O)c2cc3ccccc3cc2O)cc1 [Compound A, N-(4-cyanophenyl)-3-hydroxy-2-naphthamide]
CREB genomic binding (CREB genomic binding): did not change
interaction with daunorubicin and cytarabine (isobolograms) (KG-1 cells): synergistic
Combination Index (CI) (KG-1 cells; Compound A with cytarabine): less than 1
Combination Index (CI) (KG-1 cells; Compound A with daunorubicin): less than 1
binding of CREB to CBP (immunoprecipitation) (CREB/CBP association): inhibits CREB/CBP association; also recorded: prevented binding of CREB to CBP
number of CREB-bound genes with greater than 50% reduced expression ([1]; 5 μM, 12 hours): 602
number of CREB-bound genes with reduced expression ([1]; 5 μM, 12 hours, of 4680 CREB-bound sites): 2787
target gene expression of other CBP-binding transcription factors (Rel, RelA, RelB, Foxo3, Foxo1, Myb) ([1]; KG-1 cells, RNA-Seq): no significant change
